# Source: the NIST ThermoML archive (doi:10.1016/j.fluid.2007.07.016)
# ± gives the expanded uncertainty stated by the source.
# Legend:
# [1] = Liquid; for viscosity: Capillary tube (Ostwald / Ubbelohde) method; for speed of sound: Linear variable-path acoustic interferometer
# [2] = xn = mol fraction of the nth substance listed; conditions: 101 kPa, Liquid; for viscosity: Capillary tube (Ostwald / Ubbelohde) method; for speed of sound: Linear variable-path acoustic interferometer
SMILES,"viscosity ([1]; 288.15 K, 101 kPa)","speed of sound ([1]; 288.15 K, 101 kPa)","viscosity ([1]; 298.15 K, 101.33 kPa)","speed of sound ([1]; 298.15 K, 101.33 kPa)","viscosity ([1]; 308.15 K, 101.33 kPa)","speed of sound ([1]; 308.15 K, 101.33 kPa)","viscosity ([1]; 318.15 K, 101.33 kPa)","speed of sound ([1]; 318.15 K, 101.33 kPa)","viscosity ([2]; 288.15 K, x1 = 1)","speed of sound ([2]; 288.15 K, x1 = 1)","viscosity ([2]; 298.15 K, x1 = 1)","speed of sound ([2]; 298.15 K, x1 = 1)","viscosity ([2]; 308.15 K, x1 = 1)","speed of sound ([2]; 308.15 K, x1 = 1)","viscosity ([2]; 318.15 K, x1 = 1)","speed of sound ([2]; 318.15 K, x1 = 1)",other results
"Cc1ccccc1C [1,2-dimethylbenzene]",0.8623 ± 0.0061 mPa·s,1388.5 ± 1.7 m/s,0.7576 ± 0.0053 mPa·s,1350.3 ± 1.6 m/s,0.669 ± 0.0048 mPa·s,1321.4 ± 1.6 m/s,0.5972 ± 0.0043 mPa·s,1285.8 ± 1.6 m/s,,,,,,,,,
"Cc1cc(C)cc(C)c1 [1,3,5-trimethylbenzene]",0.7592 ± 0.0056 mPa·s,1412.3 ± 1.7 m/s,0.6572 ± 0.0049 mPa·s,1369.8 ± 1.7 m/s,0.5792 ± 0.0044 mPa·s,1325.2 ± 1.7 m/s,0.5066 ± 0.004 mPa·s,1279 ± 1.6 m/s,,,,,,,,,
"Cc1cccc(C)c1 [1,3-dimethylbenzene]",0.6696 ± 0.0048 mPa·s,1373.2 ± 1.7 m/s,0.588 ± 0.0043 mPa·s,1326.6 ± 1.6 m/s,0.5229 ± 0.0039 mPa·s,1281 ± 1.6 m/s,0.4684 ± 0.0036 mPa·s,1243 ± 1.5 m/s,,,,,,,,,
"Cc1ccc(C)cc1 [1,4-dimethylbenzene]",0.7084 ± 0.0051 mPa·s,1357.5 ± 1.7 m/s,0.611 ± 0.0044 mPa·s,1316.4 ± 1.6 m/s,0.5501 ± 0.004 mPa·s,1268 ± 1.6 m/s,0.4912 ± 0.0037 mPa·s,1230.3 ± 1.5 m/s,,,,,,,,,
c1ccccc1 [benzene],0.693 ± 0.0049 mPa·s,1352.4 ± 1.6 m/s,0.6025 ± 0.0043 mPa·s,1303.5 ± 1.6 m/s,0.5395 ± 0.004 mPa·s,1257.4 ± 1.5 m/s,0.467 ± 0.0036 mPa·s,1207.2 ± 1.5 m/s,,,,,,,,,
c1ccccc1 [benzene] + C1CCOC1,,,,,,,,,,,,,,,,,"viscosity ([2]; 288.15 K, x2 = 0): 0.693 ± 0.0049 mPa·s; speed of sound ([2]; 288.15 K, x2 = 0): 1352.4 ± 1.6 m/s; viscosity ([2]; 298.15 K, x2 = 0): 0.6025 ± 0.0044 mPa·s; speed of sound ([2]; 298.15 K, x2 = 0): 1303.5 ± 1.6 m/s; viscosity ([2]; 308.15 K, x2 = 0): 0.5395 ± 0.004 mPa·s; speed of sound ([2]; 308.15 K, x2 = 0): 1257.4 ± 1.5 m/s; viscosity ([2]; 318.15 K, x2 = 0): 0.467 ± 0.0037 mPa·s; speed of sound ([2]; 318.15 K, x2 = 0): 1207.2 ± 1.5 m/s"
C1CCOC1 [tetrahydrofuran],0.5129 ± 0.0039 mPa·s,1323.1 ± 1.6 m/s,0.458 ± 0.0035 mPa·s,1276.6 ± 1.6 m/s,0.4125 ± 0.0032 mPa·s,1231.7 ± 1.6 m/s,0.3762 ± 0.003 mPa·s,1186.4 ± 1.5 m/s,,,,,,,,,"speed of sound ([1]; 298.15 K, 101 kPa): 1277.6 ± 1.6 m/s; speed of sound ([1]; 308.15 K, 101 kPa): 1231.5 ± 1.6 m/s; speed of sound ([1]; 318.15 K, 101 kPa): 1187.2 ± 1.5 m/s"
C1CCOC1 [tetrahydrofuran] + Cc1cc(C)cc(C)c1,,,,,,,,,0.5129 ± 0.0039 mPa·s,1323.1 ± 1.6 m/s,0.458 ± 0.0036 mPa·s,1277.6 ± 1.6 m/s,0.4125 ± 0.0033 mPa·s,1231.5 ± 1.6 m/s,0.3762 ± 0.0031 mPa·s,1187.2 ± 1.5 m/s,
C1CCOC1 [tetrahydrofuran] + Cc1ccc(C)cc1,,,,,,,,,0.5129 ± 0.0039 mPa·s,1323.1 ± 1.6 m/s,0.458 ± 0.0036 mPa·s,1277.6 ± 1.6 m/s,0.4125 ± 0.0033 mPa·s,1231.5 ± 1.6 m/s,0.3762 ± 0.0031 mPa·s,1187.2 ± 1.5 m/s,
C1CCOC1 [tetrahydrofuran] + Cc1cccc(C)c1,,,,,,,,,0.5129 ± 0.0039 mPa·s,1323.1 ± 1.6 m/s,0.458 ± 0.0036 mPa·s,1277.6 ± 1.6 m/s,0.4125 ± 0.0033 mPa·s,1231.5 ± 1.6 m/s,0.3762 ± 0.0031 mPa·s,1187.2 ± 1.5 m/s,
C1CCOC1 [tetrahydrofuran] + Cc1ccccc1C,,,,,,,,,0.5129 ± 0.0039 mPa·s,1323.1 ± 1.6 m/s,0.458 ± 0.0036 mPa·s,1277.6 ± 1.6 m/s,0.4125 ± 0.0033 mPa·s,1231.5 ± 1.6 m/s,0.3762 ± 0.0031 mPa·s,1187.2 ± 1.5 m/s,
Cc1ccccc1 [toluene],0.6456 ± 0.0046 mPa·s,1358.5 ± 1.6 m/s,0.5531 ± 0.0039 mPa·s,1310.5 ± 1.6 m/s,0.502 ± 0.0037 mPa·s,1266.2 ± 1.5 m/s,0.4379 ± 0.0034 mPa·s,1221 ± 1.5 m/s,,,,,,,,,
Cc1ccccc1 [toluene] + C1CCOC1,,,,,,,,,,,,,,,,,"viscosity ([2]; 288.15 K, x2 = 0): 0.6456 ± 0.0047 mPa·s; speed of sound ([2]; 288.15 K, x2 = 0): 1358.5 ± 1.6 m/s; viscosity ([2]; 298.15 K, x2 = 0): 0.5531 ± 0.0041 mPa·s; speed of sound ([2]; 298.15 K, x2 = 0): 1310.5 ± 1.6 m/s; viscosity ([2]; 308.15 K, x2 = 0): 0.502 ± 0.0037 mPa·s; speed of sound ([2]; 308.15 K, x2 = 0): 1266.2 ± 1.5 m/s; viscosity ([2]; 318.15 K, x2 = 0): 0.4379 ± 0.0035 mPa·s; speed of sound ([2]; 318.15 K, x2 = 0): 1221 ± 1.5 m/s"
